{"source": "patent US9943543B2", "about": "“Treating male infertility secondary to sperm oxidative stress” (priority 2009, dated 2018)", "origin": "cited, not measured here", "data": [{"smiles": "CCC(=O)O[C@H](CC(=O)[O-])C[N+](C)(C)C", "note": "[Propionyl-L-carnitine]", "values": [{"measurement": "time to peak concentrations", "setting": "after oral administration", "result": "about 1 hour"}, {"measurement": "time of rise in L-carnitine plasma levels after administration", "setting": "after oral administration of propionyl-L-carnitine", "result": "2 to 6", "unit": "h"}]}]}
